Experimental data as given in patent US4523033A, “Heart testing compound” (The United States of America as represented by the United …, priority 1983, dated 1985).
Like-named read-outs stand apart in the source and are kept apart here.

Tests used:
[1] = cited from earlier work
[2] = Tissue distribution of radioactivity in rats after intravenous administration; format: in vivo; details: rat; for tissue uptake at 5 min / tissue uptake at 0.5 h / tissue uptake at 1 h / tissue uptake at 2 h / tissue uptake at 6 h / tissue uptake at 24 h / tissue uptake at 120 h: iv
Protocol: In Table I, the tissue distribution of radioactivity in rats after intravenous administration of a bovine serium-albumin complex of the 15-(p-[^125 I]-iodophenyl)-6-Tellurapentadecanoic acid is summarized for various time periods from 5 minutes to 5 days.

[3] = Cumulative excretion of radioactivity in urine and feces after injection; format: in vivo; details: rat
Protocol: These studies were conducted over a five-day period, which represents a decay period of […] for 13.2-hr iodine-123. The cumulative excretion levels in urine and feces were 43.2±1.8% injected dose after two days and […] after five days. The radioactive content of the urine (20.8±2.1%) and feces 22.4±1.1%) were similar after two days, but after five days the cumulative fecal activity (41.4±4.3%) was greater than that for urine (30.5±4.0%).

[4] = after five days, % injected dose, 7200 min
[5] = after two days, % injected dose, 2880 min

O=C(O)CCCCCCCCCCCCCCc1ccc(I)cc1 [15-(p-iodophenyl) pentadecanoic acid]
Concentration of radioactive iodide in the blood (in words) ([1]; Machulla et al 1980): avoids the high concentration of radioactive iodide in the blood

CCCCCCCC[123Te]CCCCCCCC(=O)O [9-[^123m Te] telluraheptadecanoic acid]
Uptake and retention in the myocardium (in words) ([1]; Knapp et al 1981): rapid uptake and prolonged retention in the myocardium

O=C(O)CCCCCCCCCCCCCCc1ccc([125I])cc1 [15-(p-[^125 I]iodophenyl) pentadecanoic acid]
Washout from the myocardium (in words) ([1]; background): relatively rapid

O=C(O)CCCC[Te]CCCCCCCCCc1ccc([125I])cc1 [15-(p-[^125 I]iodophenyl)-6-tellurapentadecanoic acid]
Heart retention of the maximum uptake observed after 5 minutes ([2]; after 6 hours): 80% | Heart retention of the maximal value ([2]; after 24 hours): 55% | tissue uptake at 5 min ([2]; blood, 5 min, read-out: Distribution of radioactivity, Blood): 0.26 %ID/g | tissue uptake at 0.5 h ([2]; blood, 30 min, read-out: Distribution of radioactivity, Blood): 0.45 %ID/g | tissue uptake at 1 h ([2]; blood, 60 min, read-out: Distribution of radioactivity, Blood): 0.34 %ID/g | tissue uptake at 2 h ([2]; blood, 2 h, read-out: Distribution of radioactivity, Blood): 0.42 %ID/g | tissue uptake at 6 h ([2]; blood, 6 h, read-out: Distribution of radioactivity, Blood): 0.31 %ID/g | tissue uptake at 24 h ([2]; blood, 1 d, read-out: Distribution of radioactivity, Blood): 0.2 %ID/g | tissue uptake at 120 h ([2]; blood, 5 d, read-out: Distribution of radioactivity, Blood): 0.03 %ID/g | tissue uptake at 5 min ([2]; heart, 5 min, read-out: Distribution of radioactivity, Heart): 5.87 %ID/g | tissue uptake at 0.5 h ([2]; heart, 30 min, read-out: Distribution of radioactivity, Heart): 5.43 %ID/g | tissue uptake at 1 h ([2]; heart, 60 min, read-out: Distribution of radioactivity, Heart): 5.55 %ID/g | tissue uptake at 2 h ([2]; heart, 2 h, read-out: Distribution of radioactivity, Heart): 5.85 %ID/g | tissue uptake at 6 h ([2]; heart, 6 h, read-out: Distribution of radioactivity, Heart): 4.78 %ID/g | tissue uptake at 24 h ([2]; heart, 1 d, read-out: Distribution of radioactivity, Heart): 3.25 %ID/g | tissue uptake at 120 h ([2]; heart, 5 d, read-out: Distribution of radioactivity, Heart): 0.94 %ID/g | Blood clearance (in words) ([2]; i.v.): rapid blood clearance | Blood levels (in words) ([2]; i.v.): low blood levels | Deiodination (in words) ([2]; i.v.): minimal deiodination | Myocardial uptake (in words) ([2]; i.v.): rapid and pronounced myocardial uptake | Radioactivity accumulated in thyroid tissue (in words) ([2]; i.v.): Only marginal radioactivity accumulated in the thyroid tissue | Retention of radioactivity in the heart (in words) ([2]; i.v.): Prolonged retention of radioactivity | Distribution of radioactivity, Blood ([2]; i.v., 5 min): 2.00 % injected dose/organ | Distribution of radioactivity, Heart ([2]; i.v., 5 min): 2.98 % injected dose/organ | Distribution of radioactivity, Kidneys ([2]; i.v., 5 min): 1.25 % injected dose/organ | Distribution of radioactivity, Liver ([2]; i.v., 5 min): 50.94 % injected dose/organ | Distribution of radioactivity, Lungs ([2]; i.v., 5 min): 0.97 % injected dose/organ | Distribution of radioactivity, Thyroid ([2]; i.v., 5 min): 0.02 % injected dose/organ | Distribution of radioactivity, Blood ([2]; i.v., 30 min): 3.41 % injected dose/organ | Distribution of radioactivity, Heart ([2]; i.v., 30 min): 2.61 % injected dose/organ | Distribution of radioactivity, Kidneys ([2]; i.v., 30 min): 1.52 % injected dose/organ | Distribution of radioactivity, Liver ([2]; i.v., 30 min): 39.28 % injected dose/organ | Distribution of radioactivity, Lungs ([2]; i.v., 30 min): 1.05 % injected dose/organ | Distribution of radioactivity, Thyroid ([2]; i.v., 30 min): 0.02 % injected dose/organ | Distribution of radioactivity, Blood ([2]; i.v., 60 min): 2.66 % injected dose/organ | Distribution of radioactivity, Heart ([2]; i.v., 60 min): 2.87 % injected dose/organ | Distribution of radioactivity, Kidneys ([2]; i.v., 60 min): 1.73 % injected dose/organ | Distribution of radioactivity, Liver ([2]; i.v., 60 min): 39.03 % injected dose/organ | Distribution of radioactivity, Lungs ([2]; i.v., 60 min): 1.01 % injected dose/organ | Distribution of radioactivity, Thyroid ([2]; i.v., 60 min): 0.02 % injected dose/organ | Distribution of radioactivity, Blood ([2]; i.v., 2 h): 3.01 % injected dose/organ | Distribution of radioactivity, Heart ([2]; i.v., 2 h): 2.87 % injected dose/organ | Distribution of radioactivity, Kidneys ([2]; i.v., 2 h): 1.53 % injected dose/organ | Distribution of radioactivity, Liver ([2]; i.v., 2 h): 44.03 % injected dose/organ | Distribution of radioactivity, Lungs ([2]; i.v., 2 h): 1.29 % injected dose/organ | Distribution of radioactivity, Thyroid ([2]; i.v., 2 h): 0.04 % injected dose/organ | Distribution of radioactivity, Blood ([2]; i.v., 6 h): 2.26 % injected dose/organ | Distribution of radioactivity, Heart ([2]; i.v., 6 h): 2.32 % injected dose/organ | Distribution of radioactivity, Kidneys ([2]; i.v., 6 h): 1.25 % injected dose/organ | Distribution of radioactivity, Liver ([2]; i.v., 6 h): 46.39 % injected dose/organ | Distribution of radioactivity, Lungs ([2]; i.v., 6 h): 0.85 % injected dose/organ | Distribution of radioactivity, Thyroid ([2]; i.v., 6 h): 0.07 % injected dose/organ | Distribution of radioactivity, Blood ([2]; i.v., 1 d): 1.50 % injected dose/organ | Distribution of radioactivity, Heart ([2]; i.v., 1 d): 1.60 % injected dose/organ | Distribution of radioactivity, Kidneys ([2]; i.v., 1 d): 0.81 % injected dose/organ | Distribution of radioactivity, Liver ([2]; i.v., 1 d): 34.28 % injected dose/organ | Distribution of radioactivity, Lungs ([2]; i.v., 1 d): 0.70 % injected dose/organ | Distribution of radioactivity, Thyroid ([2]; i.v., 1 d): 0.26 % injected dose/organ | Distribution of radioactivity, Blood ([2]; i.v., 5 d): 0.23 % injected dose/organ | Distribution of radioactivity, Heart ([2]; i.v., 5 d): 0.45 % injected dose/organ | Distribution of radioactivity, Kidneys ([2]; i.v., 5 d): 0.23 % injected dose/organ | Distribution of radioactivity, Liver ([2]; i.v., 5 d): 6.46 % injected dose/organ | Distribution of radioactivity, Lungs ([2]; i.v., 5 d): 0.24 % injected dose/organ | Distribution of radioactivity, Thyroid ([2]; i.v., 5 d): 0.32 % injected dose/organ | tissue uptake at 5 min ([2]; kidneys, 5 min, read-out: Distribution of radioactivity, Kidneys): 1.02 %ID/g | tissue uptake at 0.5 h ([2]; kidneys, 30 min, read-out: Distribution of radioactivity, Kidneys): 1.25 %ID/g | tissue uptake at 1 h ([2]; kidneys, 60 min, read-out: Distribution of radioactivity, Kidneys): 1.41 %ID/g | tissue uptake at 2 h ([2]; kidneys, 2 h, read-out: Distribution of radioactivity, Kidneys): 1.37 %ID/g | tissue uptake at 6 h ([2]; kidneys, 6 h, read-out: Distribution of radioactivity, Kidneys): 1.12 %ID/g | tissue uptake at 24 h ([2]; kidneys, 1 d, read-out: Distribution of radioactivity, Kidneys): 0.7 %ID/g | tissue uptake at 120 h ([2]; kidneys, 5 d, read-out: Distribution of radioactivity, Kidneys): 0.2 %ID/g | tissue uptake at 5 min ([2]; liver, 5 min, read-out: Distribution of radioactivity, Liver): 9.57 %ID/g | tissue uptake at 0.5 h ([2]; liver, 30 min, read-out: Distribution of radioactivity, Liver): 7.78 %ID/g | tissue uptake at 1 h ([2]; liver, 60 min, read-out: Distribution of radioactivity, Liver): 7.69 %ID/g | tissue uptake at 2 h ([2]; liver, 2 h, read-out: Distribution of radioactivity, Liver): 8.38 %ID/g | tissue uptake at 6 h ([2]; liver, 6 h, read-out: Distribution of radioactivity, Liver): 8.37 %ID/g | tissue uptake at 24 h ([2]; liver, 1 d, read-out: Distribution of radioactivity, Liver): 6.24 %ID/g | tissue uptake at 120 h ([2]; liver, 5 d, read-out: Distribution of radioactivity, Liver): 1.28 %ID/g | tissue uptake at 5 min ([2]; lungs, 5 min, read-out: Distribution of radioactivity, Lungs): 1.14 %ID/g | tissue uptake at 0.5 h ([2]; lungs, 30 min, read-out: Distribution of radioactivity, Lungs): 1.25 %ID/g | tissue uptake at 1 h ([2]; lungs, 60 min, read-out: Distribution of radioactivity, Lungs): 1.48 %ID/g | tissue uptake at 2 h ([2]; lungs, 2 h, read-out: Distribution of radioactivity, Lungs): 1.57 %ID/g | tissue uptake at 6 h ([2]; lungs, 6 h, read-out: Distribution of radioactivity, Lungs): 1.1 %ID/g | tissue uptake at 24 h ([2]; lungs, 1 d, read-out: Distribution of radioactivity, Lungs): 0.89 %ID/g | tissue uptake at 120 h ([2]; lungs, 5 d, read-out: Distribution of radioactivity, Lungs): 0.33 %ID/g | tissue uptake at 5 min ([2]; thyroid, 5 min, read-out: Distribution of radioactivity, Thyroid): 1.52 %ID/g | tissue uptake at 0.5 h ([2]; thyroid, 30 min, read-out: Distribution of radioactivity, Thyroid): 1.51 %ID/g | tissue uptake at 1 h ([2]; thyroid, 60 min, read-out: Distribution of radioactivity, Thyroid): 1.48 %ID/g | tissue uptake at 2 h ([2]; thyroid, 2 h, read-out: Distribution of radioactivity, Thyroid): 3.51 %ID/g | tissue uptake at 6 h ([2]; thyroid, 6 h, read-out: Distribution of radioactivity, Thyroid): 5.89 %ID/g | tissue uptake at 24 h ([2]; thyroid, 1 d, read-out: Distribution of radioactivity, Thyroid): 22.8 %ID/g | tissue uptake at 120 h ([2]; thyroid, 5 d, read-out: Distribution of radioactivity, Thyroid): 30.2 %ID/g | tissue uptake at 5 min ([2]; thyroid, after 5 minutes, read-out: Radioactivity accumulated in the thyroid tissue): 1.52 %ID/g | tissue uptake at 6 h ([2]; thyroid, after 6 hours, read-out: Radioactivity accumulated in the thyroid tissue): 5.84 %ID/g | Cumulative excretion in urine and feces [3, 4]: 71.6±8.3% | Cumulative fecal activity [3, 4]: 41.4±4.3% | Cumulative urine activity [3, 4]: 30.5±4.0% | Cumulative excretion in urine and feces ([3]; after two days, 2880 min): 43.2±1.8 % injected dose | Radioactive content of the feces [3, 5]: 22.4±1.1% | Radioactive content of the urine [3, 5]: 20.8±2.1%
